Values after ≈ are worked out from the molar mass of the structure shown.
test system: Trichosporon asahii 1188; assay: Antifungal microdilution broth MIC, T. asahii; type: cell-based; conditions: Trichosporon asahii, 1188, 24 h, read-out: MIC TA 24 h

| Compound | MIC |
| --- | --- |
| O=S(=O)(Nc1ncccn1)c1ccc(N=Cc2cc(Br)ccc2O)cc1 [Compound 2d, 4-[(5-Bromo-2-hydroxybenzylidene)amino]-N-(pyrimidin-2-yl)benzenesulfonamide] | 62.5 µM (≈ 27.1 µg/mL) |

same assay, conditions: Trichosporon asahii, 1188, 48 h, read-out: MIC TA 48 h

| Compound | MIC |
| --- | --- |
| O=S(=O)(Nc1ncccn1)c1ccc(N=Cc2cc(Br)ccc2O)cc1 [Compound 2d, 4-[(5-Bromo-2-hydroxybenzylidene)amino]-N-(pyrimidin-2-yl)benzenesulfonamide] | 62.5 µM (≈ 27.1 µg/mL) |

test system: Klebsiella pneumoniae D 11750/08; assay: not given; conditions: 24 h

| Compound | MIC KP 24 h |
| --- | --- |
| O=S(=O)(Nc1ncccn1)c1ccc(N=Cc2cc(Br)ccc2O)cc1 [Compound 2d, 4-[(5-Bromo-2-hydroxybenzylidene)amino]-N-(pyrimidin-2-yl)benzenesulfonamide] | 500 µM (≈ 217 µg/mL) |

same assay, conditions: 48 h

| Compound | MIC KP 48 h |
| --- | --- |
| O=S(=O)(Nc1ncccn1)c1ccc(N=Cc2cc(Br)ccc2O)cc1 [Compound 2d, 4-[(5-Bromo-2-hydroxybenzylidene)amino]-N-(pyrimidin-2-yl)benzenesulfonamide] | 500 µM (≈ 217 µg/mL) |

test system: Lichtheimia corymbifera 272; assay: Antifungal microdilution broth MIC, L. corymbifera; type: cell-based; conditions: Lichtheimia corymbifera, 272; 48 h incubation; read-out: MIC LC 48 h

| Compound | MIC |
| --- | --- |
| O=S(=O)(Nc1ncccn1)c1ccc(N=Cc2cc(Br)ccc2O)cc1 [Compound 2d, 4-[(5-Bromo-2-hydroxybenzylidene)amino]-N-(pyrimidin-2-yl)benzenesulfonamide] | > 500 µM |

test system: Candida krusei E28; assay: Antifungal microdilution broth MIC, C. krusei; type: cell-based; conditions: Pichia kudriavzevii, E28; 48 h incubation; read-out: MIC CK 48 h

| Compound | MIC |
| --- | --- |
| O=S(=O)(Nc1ncccn1)c1ccc(N=Cc2cc(Br)ccc2O)cc1 [Compound 2d, 4-[(5-Bromo-2-hydroxybenzylidene)amino]-N-(pyrimidin-2-yl)benzenesulfonamide] | 250 µM (≈ 108 µg/mL) |

test system: Staphylococcus aureus CCM 4516/08; assay: Antibacterial microdilution broth MIC, S. aureus; type: cell-based; conditions: Staphylococcus aureus, CCM4516; 48 h incubation; read-out: MIC SA 48 h

| Compound | MIC |
| --- | --- |
| O=S(=O)(Nc1ncccn1)c1ccc(N=Cc2cc(Br)ccc2O)cc1 [Compound 2d, 4-[(5-Bromo-2-hydroxybenzylidene)amino]-N-(pyrimidin-2-yl)benzenesulfonamide] | 500 µM (≈ 217 µg/mL) |

test system: Candida glabrata 20/I; assay: Antifungal microdilution broth MIC, C. glabrata; type: cell-based; conditions: Nakaseomyces glabratus, 24 h, read-out: MIC CG 24 h

| Compound | MIC |
| --- | --- |
| O=S(=O)(Nc1ncccn1)c1ccc(N=Cc2cc(Br)ccc2O)cc1 [Compound 2d, 4-[(5-Bromo-2-hydroxybenzylidene)amino]-N-(pyrimidin-2-yl)benzenesulfonamide] | 62.5 µM (≈ 27.1 µg/mL) |

same assay, conditions: Nakaseomyces glabratus, 48 h, read-out: MIC CG 48 h

| Compound | MIC |
| --- | --- |
| O=S(=O)(Nc1ncccn1)c1ccc(N=Cc2cc(Br)ccc2O)cc1 [Compound 2d, 4-[(5-Bromo-2-hydroxybenzylidene)amino]-N-(pyrimidin-2-yl)benzenesulfonamide] | 62.5 µM (≈ 27.1 µg/mL) |

test system: Trichophyton interdigitale 445; assay: Antifungal microdilution broth MIC, T. interdigitale; type: cell-based; conditions: Trichophyton interdigitale, 445, 72 h, read-out: MIC TI 72 h

| Compound | MIC |
| --- | --- |
| O=S(=O)(Nc1ncccn1)c1ccc(N=Cc2cc(Br)ccc2O)cc1 [Compound 2d, 4-[(5-Bromo-2-hydroxybenzylidene)amino]-N-(pyrimidin-2-yl)benzenesulfonamide] | 62.5 µM (≈ 27.1 µg/mL) |

same assay, conditions: Trichophyton interdigitale, 445, 120 h, read-out: MIC TI 120 h

| Compound | MIC |
| --- | --- |
| O=S(=O)(Nc1ncccn1)c1ccc(N=Cc2cc(Br)ccc2O)cc1 [Compound 2d, 4-[(5-Bromo-2-hydroxybenzylidene)amino]-N-(pyrimidin-2-yl)benzenesulfonamide] | 62.5 µM (≈ 27.1 µg/mL) |

test system: Mycobacterium avium 330/88; assay: In vitro antimycobacterial MIC, M. avium; type: cell-based; conditions: 330/88, 336 h, 14 d incubation, read-out: MIC M. avium 330/88 14 d

| Compound | MIC |
| --- | --- |
| O=S(=O)(Nc1ncccn1)c1ccc(N=Cc2cc(Br)ccc2O)cc1 [Compound 2d, 4-[(5-Bromo-2-hydroxybenzylidene)amino]-N-(pyrimidin-2-yl)benzenesulfonamide] | 125 µM (≈ 54.2 µg/mL) |

same assay, conditions: 330/88, 504 h, 21 d incubation, read-out: MIC M. avium 330/88 21 d

| Compound | MIC |
| --- | --- |
| O=S(=O)(Nc1ncccn1)c1ccc(N=Cc2cc(Br)ccc2O)cc1 [Compound 2d, 4-[(5-Bromo-2-hydroxybenzylidene)amino]-N-(pyrimidin-2-yl)benzenesulfonamide] | 125 µM (≈ 54.2 µg/mL) |

test system: M. kansasii 6509/96; assay: In vitro antimycobacterial MIC, M. kansasii clinical isolate; type: cell-based; conditions: Mycobacterium kansasii, 6509/96, 168 h; 7 d incubation; read-out: MIC M. kansasii 6509/96 7 d

| Compound | MIC |
| --- | --- |
| O=S(=O)(Nc1ncccn1)c1ccc(N=Cc2cc(Br)ccc2O)cc1 [Compound 2d, 4-[(5-Bromo-2-hydroxybenzylidene)amino]-N-(pyrimidin-2-yl)benzenesulfonamide] | 32 µM (≈ 13.9 µg/mL) |

same assay, conditions: Mycobacterium kansasii, 6509/96, 336 h; 14 d incubation; read-out: MIC M. kansasii 6509/96 14 d

| Compound | MIC |
| --- | --- |
| O=S(=O)(Nc1ncccn1)c1ccc(N=Cc2cc(Br)ccc2O)cc1 [Compound 2d, 4-[(5-Bromo-2-hydroxybenzylidene)amino]-N-(pyrimidin-2-yl)benzenesulfonamide] | 32 µM (≈ 13.9 µg/mL) |

same assay, conditions: Mycobacterium kansasii, 6509/96, 504 h; 21 d incubation; read-out: MIC M. kansasii 6509/96 21 d

| Compound | MIC |
| --- | --- |
| O=S(=O)(Nc1ncccn1)c1ccc(N=Cc2cc(Br)ccc2O)cc1 [Compound 2d, 4-[(5-Bromo-2-hydroxybenzylidene)amino]-N-(pyrimidin-2-yl)benzenesulfonamide] | 62.5 µM (≈ 27.1 µg/mL) |

test system: ESBL-positive Klebsiella pneumoniae J 14368/08; assay: not given; conditions: 24 h

| Compound | MIC KP-E 24 h |
| --- | --- |
| O=S(=O)(Nc1ncccn1)c1ccc(N=Cc2cc(Br)ccc2O)cc1 [Compound 2d, 4-[(5-Bromo-2-hydroxybenzylidene)amino]-N-(pyrimidin-2-yl)benzenesulfonamide] | 500 µM (≈ 217 µg/mL) |

same assay, conditions: 48 h

| Compound | MIC KP-E 48 h |
| --- | --- |
| O=S(=O)(Nc1ncccn1)c1ccc(N=Cc2cc(Br)ccc2O)cc1 [Compound 2d, 4-[(5-Bromo-2-hydroxybenzylidene)amino]-N-(pyrimidin-2-yl)benzenesulfonamide] | 500 µM (≈ 217 µg/mL) |

test system: Mycobacterium tuberculosis 331/88 (H37Rv); assay: In vitro antimycobacterial MIC, M. tuberculosis; type: cell-based; conditions: 336 h, 14 d incubation, read-out: MIC Mtb. 331/88 14 d

| Compound | MIC |
| --- | --- |
| O=S(=O)(Nc1ncccn1)c1ccc(N=Cc2cc(Br)ccc2O)cc1 [Compound 2d, 4-[(5-Bromo-2-hydroxybenzylidene)amino]-N-(pyrimidin-2-yl)benzenesulfonamide] | 16 µM (≈ 6.93 µg/mL) |

same assay, conditions: 504 h, 21 d incubation, read-out: MIC Mtb. 331/88 21 d

| Compound | MIC |
| --- | --- |
| O=S(=O)(Nc1ncccn1)c1ccc(N=Cc2cc(Br)ccc2O)cc1 [Compound 2d, 4-[(5-Bromo-2-hydroxybenzylidene)amino]-N-(pyrimidin-2-yl)benzenesulfonamide] | 32 µM (≈ 13.9 µg/mL) |

test system: Candida albicans ATCC 44859; assay: Antifungal microdilution broth MIC, C. albicans; type: cell-based; conditions: ATCC44859, 24 h, read-out: MIC CA 24 h

| Compound | MIC |
| --- | --- |
| O=S(=O)(Nc1ncccn1)c1ccc(N=Cc2cc(Br)ccc2O)cc1 [Compound 2d, 4-[(5-Bromo-2-hydroxybenzylidene)amino]-N-(pyrimidin-2-yl)benzenesulfonamide] | 125 µM (≈ 54.2 µg/mL) |

same assay, conditions: ATCC44859, 48 h, read-out: MIC CA 48 h

| Compound | MIC |
| --- | --- |
| O=S(=O)(Nc1ncccn1)c1ccc(N=Cc2cc(Br)ccc2O)cc1 [Compound 2d, 4-[(5-Bromo-2-hydroxybenzylidene)amino]-N-(pyrimidin-2-yl)benzenesulfonamide] | 125 µM (≈ 54.2 µg/mL) |

test system: Aspergillus fumigatus 231; assay: Antifungal microdilution broth MIC, A. fumigatus; type: cell-based; conditions: Aspergillus fumigatus, 231; 48 h incubation; read-out: MIC AF 48 h

| Compound | MIC |
| --- | --- |
| O=S(=O)(Nc1ncccn1)c1ccc(N=Cc2cc(Br)ccc2O)cc1 [Compound 2d, 4-[(5-Bromo-2-hydroxybenzylidene)amino]-N-(pyrimidin-2-yl)benzenesulfonamide] | 250 µM (≈ 108 µg/mL) |

test system: Staphylococcus epidermidis H 6966/08; assay: Antibacterial microdilution broth MIC, S. epidermidis; type: cell-based; conditions: Staphylococcus epidermidis, H6966/08; 48 h incubation; read-out: MIC SE 48 h

| Compound | MIC |
| --- | --- |
| O=S(=O)(Nc1ncccn1)c1ccc(N=Cc2cc(Br)ccc2O)cc1 [Compound 2d, 4-[(5-Bromo-2-hydroxybenzylidene)amino]-N-(pyrimidin-2-yl)benzenesulfonamide] | 250 µM (≈ 108 µg/mL) |

test system: Pseudomonas aeruginosa CCM 1961; assay: Antibacterial microdilution broth MIC, P. aeruginosa; type: cell-based; conditions: Pseudomonas aeruginosa, CCM1961; 48 h incubation; read-out: MIC PA 48 h

| Compound | MIC |
| --- | --- |
| O=S(=O)(Nc1ncccn1)c1ccc(N=Cc2cc(Br)ccc2O)cc1 [Compound 2d, 4-[(5-Bromo-2-hydroxybenzylidene)amino]-N-(pyrimidin-2-yl)benzenesulfonamide] | 500 µM (≈ 217 µg/mL) |

test system: Mycobacterium kansasii 235/80; assay: In vitro antimycobacterial MIC, M. kansasii 235/80; type: cell-based; conditions: 235/80, 168 h, 7 d incubation, read-out: MIC M. kansasii 235/80 7 d

| Compound | MIC |
| --- | --- |
| O=S(=O)(Nc1ncccn1)c1ccc(N=Cc2cc(Br)ccc2O)cc1 [Compound 2d, 4-[(5-Bromo-2-hydroxybenzylidene)amino]-N-(pyrimidin-2-yl)benzenesulfonamide] | 32 µM (≈ 13.9 µg/mL) |

same assay, conditions: 235/80, 336 h, 14 d incubation, read-out: MIC M. kansasii 235/80 14 d

| Compound | MIC |
| --- | --- |
| O=S(=O)(Nc1ncccn1)c1ccc(N=Cc2cc(Br)ccc2O)cc1 [Compound 2d, 4-[(5-Bromo-2-hydroxybenzylidene)amino]-N-(pyrimidin-2-yl)benzenesulfonamide] | 62.5 µM (≈ 27.1 µg/mL) |

same assay, conditions: 235/80, 504 h, 21 d incubation, read-out: MIC M. kansasii 235/80 21 d

| Compound | MIC |
| --- | --- |
| O=S(=O)(Nc1ncccn1)c1ccc(N=Cc2cc(Br)ccc2O)cc1 [Compound 2d, 4-[(5-Bromo-2-hydroxybenzylidene)amino]-N-(pyrimidin-2-yl)benzenesulfonamide] | 62.5 µM (≈ 27.1 µg/mL) |

test system: Candida tropicalis 156; assay: Antifungal microdilution broth MIC, C. tropicalis; type: cell-based; conditions: Candida tropicalis, 156; 48 h incubation; read-out: MIC CT 48 h

| Compound | MIC |
| --- | --- |
| O=S(=O)(Nc1ncccn1)c1ccc(N=Cc2cc(Br)ccc2O)cc1 [Compound 2d, 4-[(5-Bromo-2-hydroxybenzylidene)amino]-N-(pyrimidin-2-yl)benzenesulfonamide] | 250 µM (≈ 108 µg/mL) |

test system: Escherichia coli CCM 4517; assay: Antibacterial microdilution broth MIC, E. coli; type: cell-based; conditions: Escherichia coli, CCM4517; 48 h incubation; read-out: MIC EC 48 h

| Compound | MIC |
| --- | --- |
| O=S(=O)(Nc1ncccn1)c1ccc(N=Cc2cc(Br)ccc2O)cc1 [Compound 2d, 4-[(5-Bromo-2-hydroxybenzylidene)amino]-N-(pyrimidin-2-yl)benzenesulfonamide] | 500 µM (≈ 217 µg/mL) |

test system: Enterococcus faecalis J 14365/08; assay: Antibacterial microdilution broth MIC, E. faecalis; type: cell-based; conditions: Enterococcus faecalis, J14365/08; 48 h incubation; read-out: MIC EF 48 h

| Compound | MIC |
| --- | --- |
| O=S(=O)(Nc1ncccn1)c1ccc(N=Cc2cc(Br)ccc2O)cc1 [Compound 2d, 4-[(5-Bromo-2-hydroxybenzylidene)amino]-N-(pyrimidin-2-yl)benzenesulfonamide] | > 500 µM |
